Drawing on patent publication US20110081410A1, “THERAPEUTIC AGENT FOR LOCAL INFLAMMATION” (ST. MARIANNA UNIVERSITY, SCHOOL OFMEDICINE, priority 2005, published 2011), this text covers Hyaluronic acid production for one compound.

The subject of the assay is Synovial cells from OA patients. Conditions: retinoic acid 0.05%, 6 hours after addition, colloidal iron staining.

Procedure: Synovial cells from OA patients were cultured, and the retinoic acid nanocapsule containing calcium carbonate as an ingredient of the capsule produced in Example 1, and retinoic acid (atRA) were added thereto. Six hours after the addition, colloidal iron staining was performed to confirm the status of hyaluronic acid production. The evaluation groups were: DMSO as control, atRA, and the retinoic acid nanocapsule. The concentration of added retinoic acid was set 0.05% in both groups of atRA and retinoic acid nanocapsule.

Regarding `CC1=C(/C=C/C(C)=C/C=C/C(C)=C/C(=O)O)C(C)(C)CCC1` [atRA, All-trans retinoic acid], the Hyaluronic acid production result is listed as “confirmed”.
